According to patent publication US10420341B2, “Herbicidal phenylpyrimidines” (BASF SE, priority 2015, dated 2019):

Legend:
ECHCG [1] = test: greenhouse post-emergence herbicidal test; type: in vivo, Echinocloa crus-galli; conditions: post-emergence method, scale from 0 to 100
Method in brief: (§1)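 Read-out is a visual 0–100 injury rating, 100 meaning complete destruction of at least aerial parts and 0 meaning normal growth. It was taken over 2–4 weeks after plants 3–15 cm tall were treated with compound suspended or emulsified in water.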

ABUTH = test: greenhouse post-emergence herbicidal test; type: in vivo, Abutilon theophrasti; conditions: post-emergence method, scale from 0 to 100
Method in brief: as §1

SETFA = test: greenhouse pre-emergence herbicidal test; type: in vivo, Setaria faberi; conditions: pre-emergence method, scale from 0 to 100
Text: The seeds of the test plants were sown separately for each species. For the pre-emergence treatment, the active ingredients, which had been suspended or emulsified in water, were applied directly after sowing by means of finely distributing nozzles. The containers were irrigated gently to promote germination and growth and subsequently covered with transparent plastic hoods until the plants had rooted. This cover caused uniform germination of the test plants, unless this had been impaired by the active ingredients. Depending on the species, the plants were kept at 10-25° C. or 20-35° C., respectively. The test period extended over 2 to 4 weeks. During this time, the plants were tended, and their response to the individual treatments was evaluated. Evaluation was carried out using a scale from 0 to 100. 100 means no emergence of the plants, or complete destruction of at least the aerial moieties, and 0 means no damage, or normal course of growth. […] The plants used in the greenhouse experiments were of the following species: [table]

APESV = test: greenhouse pre-emergence herbicidal test; type: in vivo, Apera spica-venti; conditions: pre-emergence method, scale from 0 to 100
Method in brief: (§2)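 Compounds suspended or emulsified in water, sprayed pre-emergence directly after sowing; containers covered until rooting, kept at 10-25 °C or 20-35 °C by species. Damage scored 0-100 (100 = no emergence or complete destruction of aerial parts) after 2 to 4 weeks.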

AMARE = test: greenhouse post-emergence herbicidal test; type: in vivo, Amaranthus retroflexus; conditions: post-emergence method, scale from 0 to 100
Method in brief: as §1

ECHCG [2] = test: greenhouse pre-emergence herbicidal test; type: in vivo, Echinocloa crus-galli; conditions: pre-emergence method, scale from 0 to 100
Method in brief: as §2

ALOMY = test: greenhouse post-emergence herbicidal test; type: in vivo, Alopercurus myosuroides; conditions: post-emergence method, application rate 1000 g/ha, scale from 0 to 100
Method in brief: as §1

SETVI = test: greenhouse post-emergence herbicidal test; type: in vivo, Setaria viridis; conditions: post-emergence method, scale from 0 to 100
Text: The seeds of the test plants were sown separately for each species. For the post-emergence treatment, the test plants were first grown to a height of 3 to 15 cm, depending on the plant habit, and only then treated with the active ingredients which had been suspended or emulsified in water. For this purpose, the test plants were either sown directly and grown in the same containers, or they were first grown separately as seedlings and transplanted into the test containers a few days prior to treatment. Depending on the species, the plants were kept at 10-25° C. or 20-35° C., respectively. The test period extended over 2 to 4 weeks. During this time, the plants were tended, and their response to the individual treatments was evaluated. Evaluation was carried out using a scale from 0 to 100. 100 means no emergence of the plants, or complete destruction of at least the aerial moieties, and 0 means no damage, or normal course of growth. […] The plants used in the greenhouse experiments were of the following species: [table]

POLCO = test: greenhouse post-emergence herbicidal test; type: in vivo, Polygonum convolvulus; conditions: post-emergence method, application rate 500 g/ha, scale from 0 to 100
Method in brief: as §1

AVEFA = test: greenhouse post-emergence herbicidal test; type: in vivo, Avena fatua; conditions: post-emergence method, application rate 1000 g/ha, scale from 0 to 100
Method in brief: as §1

O=C(O)c1nc(C2CCC2)ncc1-c1ccccc1Cl [example 2, 5-(2-Chlorophenyl)-2-cyclobutyl-pyrimidine-4-carboxylate]
herbicidal activity against ECHCG (ECHCG [1]; application rate 1000 g/ha): good (A good herbicidal activity is given at values of at least 70) | herbicidal activity against ABUTH (ABUTH; application rate 1000 g/ha): good (A good herbicidal activity is given at values of at least 70) | herbicidal activity against SETFA (SETFA; application rate 1000 g/ha): good (A good herbicidal activity is given at values of at least 70)

CCc1ncc(-c2cc(C)ccc2C)c(C(=O)O)n1 [example 9]
herbicidal activity against APESV (APESV; application rate 1000 g/ha): very good (a very good herbicidal activity is given at values of at least 85) | herbicidal activity against AMARE (AMARE; application rate 1000 g/ha): good (A good herbicidal activity is given at values of at least 70) | herbicidal activity against ABUTH (ABUTH; application rate 1000 g/ha): very good (a very good herbicidal activity is given at values of at least 85) | herbicidal activity against SETFA (SETFA; application rate 1000 g/ha): very good (a very good herbicidal activity is given at values of at least 85)

COC(=O)c1nc(C(C)C)ncc1-c1ccccc1C [example 37]
herbicidal activity against ECHCG (ECHCG [1]; application rate 1000 g/ha): very good (a very good herbicidal activity is given at values of at least 85) | herbicidal activity against ECHCG (ECHCG [2]; application rate 1000 g/ha): very good (a very good herbicidal activity is given at values of at least 85) | herbicidal activity against SETFA (SETFA; application rate 1000 g/ha): very good (a very good herbicidal activity is given at values of at least 85)

CCOC(=O)c1nc(OC)ncc1-c1cc(C)c(F)cc1C [example 64]
herbicidal activity against ALOMY (ALOMY): very good (a very good herbicidal activity is given at values of at least 85) | herbicidal activity against AMARE (AMARE; application rate 1000 g/ha): very good (a very good herbicidal activity is given at values of at least 85) | herbicidal activity against SETVI (SETVI; application rate 1000 g/ha): very good (a very good herbicidal activity is given at values of at least 85)

CSc1ncc(-c2cc(C)ccc2Cl)c(C(=O)O)n1 [example 86]
herbicidal activity against ECHCG (ECHCG [2]; application rate 1000 g/ha): good (A good herbicidal activity is given at values of at least 70) | herbicidal activity against SETFA (SETFA; application rate 1000 g/ha): good (A good herbicidal activity is given at values of at least 70)

CSc1ncc(-c2ccc(C#N)cc2C)c(C(=O)O)n1 [example 96]
herbicidal activity against AMARE (AMARE; application rate 2000 g/ha): very good (a very good herbicidal activity is given at values of at least 85) | herbicidal activity against SETVI (SETVI; application rate 2000 g/ha): very good (a very good herbicidal activity is given at values of at least 85)

CSc1ncc(-c2ccc(C(F)(F)F)cc2C)c(C(=O)O)n1 [example 99]
herbicidal activity against AMARE (AMARE; application rate 2000 g/ha): very good (a very good herbicidal activity is given at values of at least 85) | herbicidal activity against ECHCG (ECHCG [1]; application rate 2000 g/ha): good (A good herbicidal activity is given at values of at least 70) | herbicidal activity against SETVI (SETVI; application rate 2000 g/ha): very good (a very good herbicidal activity is given at values of at least 85)

COc1ccc(-c2cnc(SC)nc2C(=O)O)c(OC)c1 [example 109]
herbicidal activity against SETVI (SETVI; application rate 2000 g/ha): good (A good herbicidal activity is given at values of at least 70)

CSc1ncc(-c2ccccc2S(C)(=O)=O)c(C(=O)O)n1 [example 114]
herbicidal activity against SETFA (SETFA; application rate 2000 g/ha): very good (a very good herbicidal activity is given at values of at least 85)

Cc1ccccc1-c1cnc(S(C)(=O)=O)nc1C(=O)O [example 127]
herbicidal activity against SETFA (SETFA; application rate 2000 g/ha): good (A good herbicidal activity is given at values of at least 70)

Cc1cc(F)c(-c2cnc(C3CC3)nc2C(=O)O)cc1Cl [example 137]
herbicidal activity against AMARE (AMARE; application rate 1000 g/ha): very good (a very good herbicidal activity is given at values of at least 85) | herbicidal activity against SETVI (SETVI; application rate 1000 g/ha): very good (a very good herbicidal activity is given at values of at least 85)

Cc1ccc(Cl)c(-c2cnc(C3CC3)nc2C(=O)O)c1 [example 144]
herbicidal activity against APESV (APESV; application rate 500 g/ha): very good (a very good herbicidal activity is given at values of at least 85) | herbicidal activity against ECHCG (ECHCG [2]; application rate 500 g/ha): very good (a very good herbicidal activity is given at values of at least 85) | herbicidal activity against SETVI (SETVI; application rate 500 g/ha): very good (a very good herbicidal activity is given at values of at least 85) | herbicidal activity against POLCO (POLCO): very good (a very good herbicidal activity is given at values of at least 85)

Cc1ccc(F)cc1-c1cnc(C2CC2)nc1C(=O)O [example 163]
herbicidal activity against APESV (APESV; application rate 1000 g/ha): very good (a very good herbicidal activity is given at values of at least 85) | herbicidal activity against ECHCG (ECHCG [1]; application rate 1000 g/ha): very good (a very good herbicidal activity is given at values of at least 85) | herbicidal activity against ECHCG (ECHCG [2]; application rate 1000 g/ha): very good (a very good herbicidal activity is given at values of at least 85) | herbicidal activity against SETVI (SETVI; application rate 1000 g/ha): very good (a very good herbicidal activity is given at values of at least 85)

COC(=O)c1nc(C2CC2)ncc1-c1c(Br)ccc(C)c1F [example 198]
herbicidal activity against APESV (APESV; application rate 500 g/ha): very good (a very good herbicidal activity is given at values of at least 85) | herbicidal activity against ABUTH (ABUTH; application rate 500 g/ha): very good (a very good herbicidal activity is given at values of at least 85) | herbicidal activity against ECHCG (ECHCG [2]; application rate 500 g/ha): very good (a very good herbicidal activity is given at values of at least 85) | herbicidal activity against SETVI (SETVI; application rate 500 g/ha): very good (a very good herbicidal activity is given at values of at least 85)

COC(=O)c1nc(C2CC2)ncc1-c1cc(OC)ccc1Cl [example 206]
herbicidal activity against APESV (APESV; application rate 500 g/ha): very good (a very good herbicidal activity is given at values of at least 85) | herbicidal activity against ECHCG (ECHCG [1]; application rate 500 g/ha): good (A good herbicidal activity is given at values of at least 70) | herbicidal activity against ECHCG (ECHCG [2]; application rate 500 g/ha): very good (a very good herbicidal activity is given at values of at least 85) | herbicidal activity against SETVI (SETVI; application rate 500 g/ha): good (A good herbicidal activity is given at values of at least 70)

COC(=O)c1nc(C2CC2)ncc1-c1ccccc1[N+](=O)[O-] [example 223]
herbicidal activity against APESV (APESV; application rate 1000 g/ha): very good (a very good herbicidal activity is given at values of at least 85) | herbicidal activity against ECHCG (ECHCG [1]; application rate 1000 g/ha): very good (a very good herbicidal activity is given at values of at least 85) | herbicidal activity against ECHCG (ECHCG [2]; application rate 1000 g/ha): very good (a very good herbicidal activity is given at values of at least 85) | herbicidal activity against SETVI (SETVI; application rate 1000 g/ha): very good (a very good herbicidal activity is given at values of at least 85)

Cc1ccccc1-c1cnc(-c2ccccc2)nc1C(=O)O [example 271]
herbicidal activity against ECHCG (ECHCG [1]; application rate 500 g/ha): very good (a very good herbicidal activity is given at values of at least 85) | herbicidal activity against ABUTH (ABUTH; application rate 500 g/ha): very good (a very good herbicidal activity is given at values of at least 85) | herbicidal activity against SETFA (SETFA; application rate 500 g/ha): good (A good herbicidal activity is given at values of at least 70)

CNC(=O)c1nc(C2CC2)ncc1-c1ccccc1Cl [example 289]
herbicidal activity against APESV (APESV; application rate 1000 g/ha): very good (a very good herbicidal activity is given at values of at least 85) | herbicidal activity against ECHCG (ECHCG [2]; application rate 1000 g/ha): good (A good herbicidal activity is given at values of at least 70) | herbicidal activity against SETVI (SETVI; application rate 1000 g/ha): good (A good herbicidal activity is given at values of at least 70)

COC(=O)c1nc(C2CC2)ncc1-c1c(Cl)cccc1C(F)(F)F [example 302]
herbicidal activity against AMARE (AMARE; application rate 1000 g/ha): very good (a very good herbicidal activity is given at values of at least 85) | herbicidal activity against ECHCG (ECHCG [1]; application rate 1000 g/ha): very good (a very good herbicidal activity is given at values of at least 85) | herbicidal activity against SETFA (SETFA; application rate 1000 g/ha): very good (a very good herbicidal activity is given at values of at least 85)

CCOc1cccc(Br)c1-c1cnc(C2CC2)nc1C(=O)O [example 303]
herbicidal activity against APESV (APESV; application rate 1000 g/ha): very good (a very good herbicidal activity is given at values of at least 85) | herbicidal activity against ECHCG (ECHCG [1]; application rate 1000 g/ha): very good (a very good herbicidal activity is given at values of at least 85) | herbicidal activity against SETFA (SETFA; application rate 1000 g/ha): very good (a very good herbicidal activity is given at values of at least 85)

O=C(O)c1nc(C2CC2)ncc1-c1c(F)cccc1I [example 317]
herbicidal activity against APESV (APESV; application rate 1000 g/ha): very good (a very good herbicidal activity is given at values of at least 85) | herbicidal activity against ALOMY (ALOMY): very good (a very good herbicidal activity is given at values of at least 85) | herbicidal activity against ECHCG (ECHCG [2]; application rate 1000 g/ha): very good (a very good herbicidal activity is given at values of at least 85) | herbicidal activity against AVEFA (AVEFA): very good (a very good herbicidal activity is given at values of at least 85) | herbicidal activity against SETVI (SETVI; application rate 1000 g/ha): very good (a very good herbicidal activity is given at values of at least 85)
